Reference: ChEMBL document CHEMBL1201862, “PubChem BioAssay data set” (2004)
Calls of active or inactive are those of the source.

Experiments:
Coagulation factor XII = target: T1, Coagulation factor XII (Homo sapiens, UniProt P00748); assay: Factor XIIa Dose Response Confirmation from Single Well HTS. [Related pubchem assays (depositor defined):AID701]; type: functional
T1 sequence (P00748 whole entry): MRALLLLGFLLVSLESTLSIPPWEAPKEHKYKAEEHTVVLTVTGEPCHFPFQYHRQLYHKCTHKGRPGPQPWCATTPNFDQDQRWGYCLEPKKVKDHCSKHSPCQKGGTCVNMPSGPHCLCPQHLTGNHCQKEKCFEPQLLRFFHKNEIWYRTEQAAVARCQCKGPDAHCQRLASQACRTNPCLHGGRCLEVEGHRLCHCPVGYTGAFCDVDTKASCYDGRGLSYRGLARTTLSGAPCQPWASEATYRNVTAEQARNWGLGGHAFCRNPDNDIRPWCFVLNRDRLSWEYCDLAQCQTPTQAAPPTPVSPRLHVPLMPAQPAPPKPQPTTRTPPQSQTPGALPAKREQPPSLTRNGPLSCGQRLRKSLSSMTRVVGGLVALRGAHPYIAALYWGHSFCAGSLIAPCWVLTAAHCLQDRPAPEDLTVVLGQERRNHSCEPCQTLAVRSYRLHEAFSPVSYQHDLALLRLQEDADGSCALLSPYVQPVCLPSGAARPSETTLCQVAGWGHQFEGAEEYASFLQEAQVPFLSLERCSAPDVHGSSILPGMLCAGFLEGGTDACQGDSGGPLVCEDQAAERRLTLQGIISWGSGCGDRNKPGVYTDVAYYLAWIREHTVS

[1] = inhibitors of firefly luciferase expression or activity, dose response, H4 neuroglioma cells, luminescence (AID 1990); type: functional, cell-based
[2] = cytotoxicity toward NIH3T3 fibroblasts, dose response, counter-screen, cell-based, ATP luminescence, mouse fibroblasts (AID 2010); type: functional;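 further: cells exposed to compound for about 90 hours before reading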
[3] = test system: Streptococcus sp. 'group A'; assay: growth inhibition of control SK(-) GAS strain, dose response, counter-screen for streptokinase expression inhibitor project, luminescence, kanamycin, BacTiterGlo, confirmation (AID 1900); type: functional, organism-based
[4] = target: Glucose-6-phosphate 1-dehydrogenase (Homo sapiens, UniProt P11413); assay: human G6PD enzyme inhibitors, dose response, selectivity assay for P. falciparum G6PD inhibitor project, biochemical, fluorescence (AID 504792); type: functional
Streptococcus = assay: Group A Streptococcus viability loss, dose response, counter-screen for streptokinase expression inhibitor project, luminescence, BacTiterGlo (AID 1915); type: functional, organism-based;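 further: potency for reduction of bacterial viability or growth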
[5] = inhibitors of SNCA 5'UTR-driven reporter translation, confirmation, H4 neuroglioma cells, luminescence (AID 1988); type: functional, cell-based
[6] = growth suppression of beta-catenin-knockout colon cells, dose response, cell-based, HCT116, human colon tumor (AID 1045); type: functional;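 further: HCT116 colon tumor cells with beta catenin knocked out; cells exposed to compound for 60 hours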
[7] = target: T2, Replicative DNA helicase DnaB (Mycobacterium tuberculosis, UniProt P9WMR3); assay: DnaB intein splicing inhibitors, dose response, biochemical, cell-free fluorescence (AID 449749); type: functional
T2 sequence (P9WMR3 whole entry): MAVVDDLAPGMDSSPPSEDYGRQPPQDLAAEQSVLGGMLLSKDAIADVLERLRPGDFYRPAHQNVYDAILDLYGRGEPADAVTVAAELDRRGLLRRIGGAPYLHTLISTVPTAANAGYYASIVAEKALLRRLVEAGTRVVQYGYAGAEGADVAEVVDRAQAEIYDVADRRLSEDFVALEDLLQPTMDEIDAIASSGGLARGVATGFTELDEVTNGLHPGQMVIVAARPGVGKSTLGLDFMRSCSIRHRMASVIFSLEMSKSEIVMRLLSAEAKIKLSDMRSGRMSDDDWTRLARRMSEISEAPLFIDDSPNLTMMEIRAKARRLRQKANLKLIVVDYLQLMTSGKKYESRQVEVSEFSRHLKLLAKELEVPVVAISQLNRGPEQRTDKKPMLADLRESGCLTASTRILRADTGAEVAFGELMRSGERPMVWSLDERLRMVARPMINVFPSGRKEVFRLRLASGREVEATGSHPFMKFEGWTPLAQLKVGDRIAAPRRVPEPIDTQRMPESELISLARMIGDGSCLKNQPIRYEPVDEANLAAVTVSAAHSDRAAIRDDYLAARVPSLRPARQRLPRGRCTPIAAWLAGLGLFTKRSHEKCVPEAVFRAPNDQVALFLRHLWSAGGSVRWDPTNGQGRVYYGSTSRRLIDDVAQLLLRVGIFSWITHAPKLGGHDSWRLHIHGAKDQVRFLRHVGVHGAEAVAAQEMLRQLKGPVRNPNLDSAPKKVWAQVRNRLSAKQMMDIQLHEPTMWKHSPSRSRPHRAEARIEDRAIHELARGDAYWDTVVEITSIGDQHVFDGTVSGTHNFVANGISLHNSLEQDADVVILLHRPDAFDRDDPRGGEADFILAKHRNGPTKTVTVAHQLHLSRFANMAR

[8] = inhibitors of intracellular T. cruzi replication, confirmation, NIH3T3 host cells, beta-gal luminescence (AID 2044); type: functional, cell-based;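 further: intracellular parasites grown in NIH/3T3 mouse fibroblasts as host cells; luminescent beta-galactosidase reporter signal from transgenic T. cruzi replicating inside host cells; inhibitors lower the luminescence signal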
[9] = microbe, parasite or virus in culture; type: functional; details: Mycobacterium tuberculosis
[10] = target: Photoreceptor-specific nuclear receptor (Homo sapiens, UniProt Q9Y5X4); type: functional, cell-based;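 further: CHO-S cells with Gal4-NCOR and VP16-NR2E3 two-hybrid luciferase reporter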
[11] = growth suppression of PTEN-null colon cells, dose response, cell-based, HCT116 PTEN knockout (AID 1047); type: functional;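 further: HCT116 colon tumor cells with PTEN knocked out; cells exposed to compound for 60 hours before readout; potency for loss of cell viability measured by luminescence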
[12] = Luminescence Cell-Based Dose Response HTS to Identify Inhibitors of 5'UTR Stem-Loop Driven Prion Protein mRNA Translation in H4 Neuroglioblastoma Cells. [Related pubchem assays: 1827 (Project Summary), 1813 (Primary HTS)]; type: functional
Protein RecA = target: T3, Protein RecA (Mycobacterium tuberculosis, UniProt P9WHJ3); assay: Fluorescence Cell-Free Homogeneous Dose Retest to Identify Inhibitors of RecA-Intein Splicing Activity. [Related pubchem assays (depositor defined):AID2097, AID2223, AID489010, AID492950]; type: functional
T3 sequence (P9WHJ3 whole entry): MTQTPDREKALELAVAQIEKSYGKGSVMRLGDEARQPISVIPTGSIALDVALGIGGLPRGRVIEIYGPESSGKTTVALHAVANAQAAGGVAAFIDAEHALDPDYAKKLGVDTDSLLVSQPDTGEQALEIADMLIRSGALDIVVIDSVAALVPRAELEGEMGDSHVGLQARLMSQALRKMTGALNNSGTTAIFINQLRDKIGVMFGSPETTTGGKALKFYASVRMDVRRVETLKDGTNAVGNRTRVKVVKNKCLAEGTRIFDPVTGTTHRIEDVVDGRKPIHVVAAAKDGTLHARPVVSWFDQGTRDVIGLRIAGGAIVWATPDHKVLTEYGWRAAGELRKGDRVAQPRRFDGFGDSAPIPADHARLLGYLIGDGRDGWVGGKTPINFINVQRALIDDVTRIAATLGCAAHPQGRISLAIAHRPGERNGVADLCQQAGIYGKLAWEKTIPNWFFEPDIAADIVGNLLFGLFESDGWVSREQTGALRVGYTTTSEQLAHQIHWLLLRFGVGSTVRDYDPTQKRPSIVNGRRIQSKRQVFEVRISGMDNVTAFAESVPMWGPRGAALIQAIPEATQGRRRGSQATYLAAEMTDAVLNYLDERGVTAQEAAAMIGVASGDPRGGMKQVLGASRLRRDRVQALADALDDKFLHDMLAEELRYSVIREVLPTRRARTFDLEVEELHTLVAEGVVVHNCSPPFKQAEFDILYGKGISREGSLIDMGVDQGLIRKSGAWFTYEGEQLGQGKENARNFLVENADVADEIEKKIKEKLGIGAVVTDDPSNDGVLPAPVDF

Streptokinase A = target: T4, Streptokinase A (Streptococcus pyogenes serotype M1, UniProt P10520); assay: S. pyogenes streptokinase expression inhibitors, potency, dose response, plasminogen activation absorbance, OD405 (AID 1914); type: functional, Streptococcus pyogenes M1 GAS;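 further: secreted streptokinase activity via plasminogen activation per viability signal from cell pellet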
T4 sequence (P10520 whole entry): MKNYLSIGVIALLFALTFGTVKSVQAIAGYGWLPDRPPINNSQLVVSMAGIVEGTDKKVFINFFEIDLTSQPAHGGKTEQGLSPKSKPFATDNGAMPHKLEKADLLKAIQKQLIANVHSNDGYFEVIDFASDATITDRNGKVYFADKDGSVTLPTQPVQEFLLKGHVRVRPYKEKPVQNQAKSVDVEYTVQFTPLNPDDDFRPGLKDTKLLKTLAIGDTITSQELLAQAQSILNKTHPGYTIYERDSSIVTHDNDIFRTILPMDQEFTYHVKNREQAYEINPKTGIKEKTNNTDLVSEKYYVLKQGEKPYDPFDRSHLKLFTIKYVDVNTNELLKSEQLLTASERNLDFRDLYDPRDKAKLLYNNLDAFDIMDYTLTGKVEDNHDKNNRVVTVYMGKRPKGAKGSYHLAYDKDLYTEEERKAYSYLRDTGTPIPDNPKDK

[13] = Intein inhibitors as potential Tuberculosis drugs, a cytotoxicity screen. [Related pubchem assays (depositor defined):AID2221, AID2223, AID434968, AID435010, AID449749, AID449750, AID489010]; type: functional
[14] = target: T5, E3 ubiquitin-protein ligase XIAP (Homo sapiens, UniProt P98170); assay: Counter Screen using XIAP-Bir3 for Chemical Antagonists of Bir1/2 domains of IAP-family anti-apoptotic proteins. [Related pubchem assays (depositor defined):AID1018, AID1449, AID1514, AID1638, AID1749, AID1750, AID488957, AID488963]
[15] = target: T5, E3 ubiquitin-protein ligase XIAP; assay: XIAP antagonists, biochemical, IAP family, fluorescence polarization (AID 1018); type: functional
[16] = target: Alkaline phosphatase, placental type (Homo sapiens, UniProt P05187); assay: PLAP enzyme inhibitors, confirmation, biochemical, luminescence (AID 1512); type: functional
[17] = target: T6, Intestinal-type alkaline phosphatase (Homo sapiens, UniProt P09923); assay: human intestinal alkaline phosphatase activators, dose response, biochemical, luminescence, uHTS hits (AID 463120); type: functional
[18] = target: T6, Intestinal-type alkaline phosphatase; assay: human IAP activators, dose response, biochemical, luminescent, uHTS hits, set 2 (AID 488817); type: functional;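 further: potency of activators that raise enzyme activity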
[19] = target: Intestinal-type alkaline phosphatase (Mus musculus, UniProt P24822); assay: PubChem AID 488875; type: functional
[20] = target: T7, Runt-related transcription factor 1/Core-binding factor subunit beta (Homo sapiens, UniProt Q01196+Q13951); assay: inhibitors of RUNX1 Runt–CBFb-SMMHC binding, biochemical, TR-FRET (AID 1438); type: protein assay
[21] = target: T7, Runt-related transcription factor 1/Core-binding factor subunit beta; assay: inhibitors of RUNX1 Runt–CBFb-SMMHC binding, primary screen, biochemical, FRET, Cerulean-Runt, Venus-CBFb-SMMHC, uHTS (AID 1434); type: protein assay;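 further: partner is the CBFb-SMMHC leukemia fusion protein rather than wild-type CBFb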
[22] = Shn3 3'UTR reporter inhibitors, dose response, cell-based, Clone20 osteoblasts, firefly luciferase, cherry-picked (AID 624132); type: functional;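 further: firefly luciferase luminescence from reporter carrying the Shn3 3'UTR in osteoblasts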
T-cell = assay: inhibitors of CD8+ T cell–vesicle binding, dose response, mouse 2C CD8+ T cells, flow cytometry (AID 485284); type: functional
[23] = control 3'UTR Renilla luciferase suppression, dose response, counter-screen for Shn3 inhibitor project, cell-based, Clone20-Shn3RL, cherry-picked (AID 624133); type: functional
Integrin alpha-L = Integrin alpha-L (Mus musculus, UniProt P24063); assay: modulators of CD8 T cell-vesicle binding, dose response, powder samples, mouse 2C CD8+ cells (AID 504565); type: functional
[24] = target: T8, Type-1 angiotensin II receptor (Homo sapiens, UniProt P30556); assay: AT1 receptor agonists, dose response, selectivity assay for APJ receptor agonist project, cell-based, uHTS hits (AID 488865); type: functional;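 further: beta-arrestin recruitment to AT1 measured by enzyme fragment complementation luminescence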
T8 sequence (P30556 whole entry): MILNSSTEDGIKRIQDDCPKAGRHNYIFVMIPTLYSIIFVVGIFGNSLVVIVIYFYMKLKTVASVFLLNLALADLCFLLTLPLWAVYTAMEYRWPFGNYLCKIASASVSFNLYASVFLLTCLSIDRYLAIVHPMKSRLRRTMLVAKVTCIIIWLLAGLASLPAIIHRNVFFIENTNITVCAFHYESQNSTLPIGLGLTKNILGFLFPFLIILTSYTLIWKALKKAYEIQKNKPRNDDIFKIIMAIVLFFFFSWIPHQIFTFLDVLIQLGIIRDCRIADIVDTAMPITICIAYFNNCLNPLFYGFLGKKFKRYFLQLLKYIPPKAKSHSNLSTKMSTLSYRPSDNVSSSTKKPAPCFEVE

T5 sequence (P98170 whole entry): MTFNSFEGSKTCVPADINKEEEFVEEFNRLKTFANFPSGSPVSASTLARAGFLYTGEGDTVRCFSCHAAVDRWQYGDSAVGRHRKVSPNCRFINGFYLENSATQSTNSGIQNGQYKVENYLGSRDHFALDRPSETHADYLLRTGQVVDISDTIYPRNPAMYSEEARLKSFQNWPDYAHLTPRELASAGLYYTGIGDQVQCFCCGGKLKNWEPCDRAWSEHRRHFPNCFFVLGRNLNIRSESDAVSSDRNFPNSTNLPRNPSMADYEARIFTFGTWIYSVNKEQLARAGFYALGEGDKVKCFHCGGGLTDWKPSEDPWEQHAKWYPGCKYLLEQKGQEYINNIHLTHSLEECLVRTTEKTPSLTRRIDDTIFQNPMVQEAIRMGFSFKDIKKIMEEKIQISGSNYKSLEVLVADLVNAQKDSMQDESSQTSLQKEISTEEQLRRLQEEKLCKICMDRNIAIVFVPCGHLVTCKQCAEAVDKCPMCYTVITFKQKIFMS
T7 sequence (Q01196 whole entry, the tested form may be a part): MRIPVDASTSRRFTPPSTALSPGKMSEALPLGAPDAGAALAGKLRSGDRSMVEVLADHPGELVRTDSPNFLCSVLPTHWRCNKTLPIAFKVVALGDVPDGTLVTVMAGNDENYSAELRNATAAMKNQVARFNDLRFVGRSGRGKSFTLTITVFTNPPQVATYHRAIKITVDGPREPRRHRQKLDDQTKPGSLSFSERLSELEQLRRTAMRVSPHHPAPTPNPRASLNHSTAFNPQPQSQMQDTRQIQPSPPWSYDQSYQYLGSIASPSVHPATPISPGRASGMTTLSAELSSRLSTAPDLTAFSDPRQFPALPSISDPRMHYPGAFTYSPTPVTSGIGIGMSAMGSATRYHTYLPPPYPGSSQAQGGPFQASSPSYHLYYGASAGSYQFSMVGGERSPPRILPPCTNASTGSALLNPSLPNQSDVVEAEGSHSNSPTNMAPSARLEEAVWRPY
T7 sequence (Q13951 whole entry, the tested form may be a part): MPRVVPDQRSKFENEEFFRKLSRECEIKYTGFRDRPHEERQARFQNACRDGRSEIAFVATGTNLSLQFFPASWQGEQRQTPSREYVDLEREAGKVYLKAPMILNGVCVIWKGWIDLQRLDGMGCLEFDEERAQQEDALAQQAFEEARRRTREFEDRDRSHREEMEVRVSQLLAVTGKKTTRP
T6 sequence (P09923 whole entry): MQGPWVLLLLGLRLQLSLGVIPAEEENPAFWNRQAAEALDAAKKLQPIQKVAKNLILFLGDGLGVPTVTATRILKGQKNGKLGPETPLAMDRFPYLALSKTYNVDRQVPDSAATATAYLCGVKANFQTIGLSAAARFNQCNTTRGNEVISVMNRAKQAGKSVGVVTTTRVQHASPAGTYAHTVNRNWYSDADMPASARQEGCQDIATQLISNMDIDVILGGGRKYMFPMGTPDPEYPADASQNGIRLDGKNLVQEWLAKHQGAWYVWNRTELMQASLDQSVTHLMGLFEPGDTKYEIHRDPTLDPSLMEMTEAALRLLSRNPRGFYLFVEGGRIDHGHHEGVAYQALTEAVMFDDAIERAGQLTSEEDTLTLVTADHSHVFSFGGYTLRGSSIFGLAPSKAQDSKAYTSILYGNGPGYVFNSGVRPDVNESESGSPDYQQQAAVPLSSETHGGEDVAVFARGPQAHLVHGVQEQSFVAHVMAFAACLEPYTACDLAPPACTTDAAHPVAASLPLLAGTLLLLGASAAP
Photoreceptor-specific nuclear receptor, sequence (Q9Y5X4 whole entry, the tested form may be a part): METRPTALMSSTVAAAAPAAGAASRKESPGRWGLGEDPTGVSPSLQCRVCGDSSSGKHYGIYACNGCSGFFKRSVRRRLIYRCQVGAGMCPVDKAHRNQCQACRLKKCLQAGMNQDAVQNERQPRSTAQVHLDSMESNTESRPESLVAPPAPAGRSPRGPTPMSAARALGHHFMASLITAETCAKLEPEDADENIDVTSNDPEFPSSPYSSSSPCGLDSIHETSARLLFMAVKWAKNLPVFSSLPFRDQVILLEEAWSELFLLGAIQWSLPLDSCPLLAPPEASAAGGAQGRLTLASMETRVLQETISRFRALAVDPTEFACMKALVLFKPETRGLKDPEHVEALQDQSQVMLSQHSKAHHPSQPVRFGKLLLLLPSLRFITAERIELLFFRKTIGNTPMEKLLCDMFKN
Integrin alpha-L, sequence (P24063 whole entry, the tested form may be a part): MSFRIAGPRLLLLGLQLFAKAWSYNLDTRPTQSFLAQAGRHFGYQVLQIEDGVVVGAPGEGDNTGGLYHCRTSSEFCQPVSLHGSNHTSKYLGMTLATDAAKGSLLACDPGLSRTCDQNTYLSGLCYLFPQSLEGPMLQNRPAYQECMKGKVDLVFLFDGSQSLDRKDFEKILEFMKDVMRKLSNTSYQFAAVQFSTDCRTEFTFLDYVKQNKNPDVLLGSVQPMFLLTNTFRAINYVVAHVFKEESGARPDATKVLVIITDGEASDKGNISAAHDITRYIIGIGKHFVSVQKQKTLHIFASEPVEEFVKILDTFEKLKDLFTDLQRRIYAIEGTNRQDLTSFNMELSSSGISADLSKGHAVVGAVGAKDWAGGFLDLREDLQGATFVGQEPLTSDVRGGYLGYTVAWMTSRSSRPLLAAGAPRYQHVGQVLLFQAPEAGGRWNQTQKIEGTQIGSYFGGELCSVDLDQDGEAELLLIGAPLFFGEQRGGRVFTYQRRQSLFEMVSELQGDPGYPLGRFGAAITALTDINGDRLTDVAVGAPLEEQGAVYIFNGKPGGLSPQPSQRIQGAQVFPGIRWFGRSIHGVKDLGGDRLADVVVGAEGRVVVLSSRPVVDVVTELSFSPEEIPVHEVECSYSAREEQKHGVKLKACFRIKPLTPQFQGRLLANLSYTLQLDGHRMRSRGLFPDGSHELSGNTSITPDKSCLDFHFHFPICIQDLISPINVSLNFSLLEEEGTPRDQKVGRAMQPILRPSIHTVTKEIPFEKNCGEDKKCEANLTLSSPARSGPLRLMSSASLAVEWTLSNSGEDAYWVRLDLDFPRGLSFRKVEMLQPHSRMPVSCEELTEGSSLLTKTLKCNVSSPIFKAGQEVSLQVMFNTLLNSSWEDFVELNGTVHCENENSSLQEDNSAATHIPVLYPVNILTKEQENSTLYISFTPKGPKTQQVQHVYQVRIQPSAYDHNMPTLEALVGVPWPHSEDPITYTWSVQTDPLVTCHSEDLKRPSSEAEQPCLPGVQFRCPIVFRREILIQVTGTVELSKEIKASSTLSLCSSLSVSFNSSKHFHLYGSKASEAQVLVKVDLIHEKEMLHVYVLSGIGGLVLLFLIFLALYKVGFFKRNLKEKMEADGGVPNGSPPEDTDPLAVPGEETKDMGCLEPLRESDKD
Intestinal-type alkaline phosphatase (Mus musculus, UniProt P24822), sequence (P24822 whole entry): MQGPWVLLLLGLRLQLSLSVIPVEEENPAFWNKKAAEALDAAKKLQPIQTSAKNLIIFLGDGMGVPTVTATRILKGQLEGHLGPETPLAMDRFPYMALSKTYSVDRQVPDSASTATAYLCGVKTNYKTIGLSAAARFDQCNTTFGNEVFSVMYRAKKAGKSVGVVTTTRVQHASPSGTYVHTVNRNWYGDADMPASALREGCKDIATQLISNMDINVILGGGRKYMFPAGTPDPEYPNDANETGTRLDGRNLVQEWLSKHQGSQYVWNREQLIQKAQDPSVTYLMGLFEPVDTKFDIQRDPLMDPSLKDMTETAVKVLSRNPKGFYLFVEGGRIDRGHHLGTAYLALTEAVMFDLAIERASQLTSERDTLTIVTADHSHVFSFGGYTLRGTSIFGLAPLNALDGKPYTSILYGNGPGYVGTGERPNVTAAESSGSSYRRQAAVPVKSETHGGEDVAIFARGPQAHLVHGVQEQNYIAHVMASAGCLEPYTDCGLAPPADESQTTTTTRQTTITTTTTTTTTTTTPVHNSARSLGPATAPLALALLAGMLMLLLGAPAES
Glucose-6-phosphate 1-dehydrogenase, sequence (P11413 whole entry): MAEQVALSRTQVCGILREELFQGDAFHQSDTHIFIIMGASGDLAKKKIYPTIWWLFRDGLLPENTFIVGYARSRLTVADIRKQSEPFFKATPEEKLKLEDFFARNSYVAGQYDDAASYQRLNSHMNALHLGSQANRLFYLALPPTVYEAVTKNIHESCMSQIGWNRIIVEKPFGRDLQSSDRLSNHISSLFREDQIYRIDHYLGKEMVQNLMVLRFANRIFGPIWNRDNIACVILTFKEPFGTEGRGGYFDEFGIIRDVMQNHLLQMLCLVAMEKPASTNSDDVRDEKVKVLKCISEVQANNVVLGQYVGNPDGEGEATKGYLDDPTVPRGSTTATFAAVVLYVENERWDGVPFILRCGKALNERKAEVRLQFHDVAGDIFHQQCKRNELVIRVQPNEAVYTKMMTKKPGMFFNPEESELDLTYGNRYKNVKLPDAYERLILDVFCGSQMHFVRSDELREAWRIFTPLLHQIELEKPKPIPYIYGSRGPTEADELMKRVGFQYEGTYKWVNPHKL
Alkaline phosphatase, placental type, sequence (P05187 whole entry): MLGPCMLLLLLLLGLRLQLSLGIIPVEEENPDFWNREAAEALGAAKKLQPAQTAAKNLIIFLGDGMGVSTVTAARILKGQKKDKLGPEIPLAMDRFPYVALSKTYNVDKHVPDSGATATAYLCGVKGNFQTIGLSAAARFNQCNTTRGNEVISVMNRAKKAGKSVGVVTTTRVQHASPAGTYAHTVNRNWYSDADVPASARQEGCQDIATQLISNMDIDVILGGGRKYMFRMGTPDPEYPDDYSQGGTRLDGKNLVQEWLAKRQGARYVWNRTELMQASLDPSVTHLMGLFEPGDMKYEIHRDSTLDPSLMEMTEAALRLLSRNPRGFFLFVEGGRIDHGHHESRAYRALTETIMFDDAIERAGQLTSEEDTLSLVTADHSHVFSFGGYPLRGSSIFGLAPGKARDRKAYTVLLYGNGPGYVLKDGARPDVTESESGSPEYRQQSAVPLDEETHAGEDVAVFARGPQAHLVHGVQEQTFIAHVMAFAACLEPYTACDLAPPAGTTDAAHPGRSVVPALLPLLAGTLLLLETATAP

## O=C1N=C(c2ccccc2)S/C1=C\c1cccs1
Coagulation factor XII
  IC50: > 50 µM (inactive)

## COc1ccc(C(=O)c2c(C(F)(F)F)oc3c2C(=O)c2ccccc2C3=O)cc1OC
[1]
  EC50: > 120 µM (not active)
[2]
  EC50: 5.27 µM (active)
[3]
  EC50: 0.514 µM (active)
[4]
  IC50: > 80 µM (inactive)
Streptococcus
  EC50: 8.91 µM (active)
[5]
  EC50: 8.35 µM (active)
[6]
  EC50: 2.23 µM (active)
[7]
  AC50: 4.74 µM (active)
[8]
  EC50: 0.884 µM (active)
[9]
  CC50: 6.08 µM (active)
[10]
  IC50: 1.99 µM (active)
[11]
  EC50: 2.34 µM (active)
[12]
  EC50: > 120 µM (not active)
Protein RecA
  EC50: 2.02 µM (active)
Streptokinase A
  EC50: > 150 µM (not active)
[13]
  CC50: 5.78 µM (active)

## CC(C)C(NC(=O)CN1C(=O)c2ccccc2S1(=O)=O)C(C)C
[14]
  IC50: > 100 µM (inactive)
[15]
  IC50: > 100 µM (not active)

## Cc1cc(C)cc(OCC(=O)NNC(=O)c2cc(C)n[nH]2)c1
[16]
  IC50: > 100 µM (inactive)
[17]
  EC50: 12.7 µM (active)
[18]
  EC50: 16.1 µM (active)
[19]
  EC50: > 100 µM (inactive)

## Cc1cc2n(n1)C(c1ccc(N(C)C)cc1)Nc1ccccc1-2 (stereo not given)
[20]
  IC50: > 100 µM (inactive)
[21]
  IC50: 48.3 µM (active)

## COCc1c(C(=O)Nc2cccc(S(=O)(=O)N3CCCCC3)c2)oc2ccccc12
[22]
  AC50: 9.63 µM (active)
T-cell
  EC50: 50.8 µM (inactive)
[23]
  AC50: 26.4 µM (active)
Integrin alpha-L
  EC50: 24.7 µM (inactive)

## CCN1C(c2ccccc2)=C(c2ccccc2)S/C1=C\C=C1/SC(=S)N(C)C1=O
[24]
  EC50: 7.44 µM (active)
